Measured values taken from publication PMC8389655, “Au2phen and Auoxo6, Two Dinuclear Oxo-Bridged Gold(III) Compounds, Induce Apoptotic Signaling in Human Ovarian A2780 Cancer Cells” (Biomedicines, 2021).

What was measured:
[1] = test system: PNT1 (human normal prostate epithelium) cells; experiment: MTT antiproliferative assay on PNT1 cells; type: cell-based; details: for IC50: 72 h of treatment, MTT assay, mean ± SD of three experiments, read-out: Half-maximal inhibitory concentration (IC50), PNT1; for IC50 for PNT1 higher than for A2780 (fold): ratio of 72 h IC50 PNT1 / A2780
Experimental: The inhibition of cell proliferation by Au2phen, Auoxo6, and AuL12 on A2780 cell line was evaluated through MTT (3-(4,5-dimethylthiazol-2-yl)-2,5-diphenyltetrazolium bromide) test. Viable cells can convert MTT into formazan, which is coloured and detectable at 595 nm. Exponentially growing cells were seeded in 96 well-microplates at a density of 8 × 10^3 for 24 h and then gold compounds were added in fresh RPMI medium at concentrations ranging from 0.003 to 100 µM and incubated for 72 h. On the day of the test, cells were treated with 0.5 mg/mL MTT for 1 h at 37 °C. Following precipitation, blue formazan was dissolved in DMSO, and the optical density was read in a microplate reader interfaced with Microplate Manager/PV version 4.0 software (BioRad Laboratories, Hercules, USA). From the absorbance measurements, the half-maximal inhibitory concentration (IC50) value of each compound on A2780 cells was calculated using GraphPad Prism software version 6.0 (Graphpad Holdings, LLC, USA). The same protocol was applied on non-tumor cell lines, i.e., HEK and PNT1 cells.

[2] = test system: intracellular ROS in A2780 cells; experiment: Intracellular ROS evaluation (H2DCF-DA, flow cytometry); type: cell-based, human; details: A2780, 48 h treatment at 72 h IC50 dose, H2DCFDA
Experimental: Within the cell, H2DCF-DA is de-acetylated by cellular esterases to a non-fluorescent compound, which becomes fluorescent once it is oxidized by cellular ROS into 2′,7′-dichlorofluorescein (DCF). Cells were trypsinized, washed, and incubated with 5 µM H2DCFDA for 30 min in the dark. Then, cells were washed again and immediately analyzed using a FACSCantoII (BD Biosciences, New Jersey, USA) flow cytometer.

[3] = test system: A2780 cells; experiment: Annexin V/propidium iodide flow cytometry (apoptosis); type: cell-based, human; details: A2780, 72 h exposure at IC50 dose
Experimental: The evaluation of cell death was carried out using the TACS annexin V/propidium iodide staining kit (Trevigen, Gaithersburg, MD, USA) according to the manufacturer’s instructions. […] After 72 h, controls and treated cells were trypsinized, washed with PBS buffer, and suspended in the staining solution for 15 min at room temperature in the dark. Cells were then washed and immediately analyzed by FACSCantoII flow cytometer (BD Biosciences, New Jersey, USA). Cells were gated and plotted on dot plots showing the distribution of annexin V-positive cells (early apoptotic cells) and annexin V/propidium iodide-positive cells (late apoptotic cells).

[4] = test system: AKT; experiment: Western blot of phospho(Ser473)-AKT and total AKT; type: cell-based, human; details: A2780, 24 h at 72 h IC50 dose, vs controls
Experimental: After drug treatments, cells were lysed in RIPA buffer supplemented with a cocktail of protease and phosphatase inhibitors. […] To favor the electrophoretic separation, 25% sample loading buffer (SLB) was added to the cell lysates. Here, 20 µg samples of proteins from controls and treated cells were loaded on 4–20% pre-cast SDS-PAGE gels and blotted onto PVDF membranes. Primary antibodies Bcl-2 (1:1000 dilution,#sc-7382, Santa Cruz, Dallas, Texas USA), Bax (1:1000 dilution, #sc-493, Santa Cruz), OXPHOS cocktail (1:1000 dilution, #ab110413, AbCam, Cambridge, UK), citrate synthase (1:1000 dilution, #sc-515640, Santa Cruz), ASK1 (1:1000 dilution, #sc-390275, Santa Cruz), phospho(Thr838)-ASK1 (1:1000 dilution, #CPA6042, Cohesion Biosciences, London, UK), AKT (1:1000 dilution, #sc-5298, Santa Cruz), and phospho(Ser473)-AKT (1:1000 dilution, #GTX128414, GeneTex, Irvine, CA, USA) were added to 2% non-fat dry milk in PBS-tween solution, while PVDF membranes were incubated overnight at 4 °C. Then, membranes were treated with horseradish peroxidase (HRP)-conjugated secondary antibodies (1:5000 dilution, Santa Cruz) and immunoreactive bands were detected with an ECL kit detection system on an Amersham Imager 600 (GE Healthcare, Chicago, IL, USA). For the quantification, a densitometric analysis of the bands was performed using ImageJ2 software version 2.0.0-rc-64 [23]. The intensities of the immunostained bands were normalized on the Coomassie brilliant blue R-250-stained total protein from the same PVDF membrane.

[5] = test system: caspase-3; experiment: FAM-FLICA caspase-3 activation, flow cytometry; type: cell-based, human; details: A2780, 72 h at 72 h IC50 dose, compared to controls
Experimental: (§1) In addition, caspase-3, caspase-8, and caspase-9 activation was assessed in treated and untreated cells. Likewise, cells were trypsinized, washed with PBS, and suspended in FAM-FLICATM caspase solution (FAM-DEVD-FMK caspase FLICA kit, ImmunoChemistry Technologies, MN 55431 USA) for 30 min at 37 °C. Cells were then washed twice with PBS and analyzed using a FACSCantoII flow cytometer (BD Biosciences, New Jersey, USA).

[6] = test system: caspase-8; experiment: FAM-FLICA caspase-8 activation, flow cytometry; type: cell-based, human; details: A2780, 72 h at 72 h IC50 dose, compared to controls
Experimental: as §1

[7] = test system: caspase-9; experiment: FAM-FLICA caspase-9 activation, flow cytometry; type: cell-based, human; details: A2780, 72 h at 72 h IC50 dose, compared to controls
Experimental: as §1

[8] = test system: thioredoxin reductase (TrxR); details: for effect on TrxR enzyme activity: A2780, 12 h treatment at 72 h IC50 dose; for inhibition of TrxR enzyme activity: A2780, 24 h treatment at 72 h IC50 dose, vs controls
Experimental: The total thioredoxin reductase (TrxR) activity was measured using a commercial colorimetric assay kit (#CS0170, Sigma Aldrich, St. Louis, MO, USA) based on the reduction of 5,5′-dithiobis (2-nitrobenzoic) acid (DTNB) with NADPH to 5-thio-2 nitrobenzoic acid (TNB) at 412 nm. This kit also contains an inhibitor solution of mammalian thioredoxin reductase. Since several enzymes present in the biological sample can reduce DTNB, the specific inhibitor is used to determine the reduction of DTNB due only to TrxR activity. […] Cells were lysed with RIPA buffer (50 mM Tris-HCl pH 7.0, 1% (v/v) NP-40, 150 mM NaCl, 2 mM ethylene glycol bis(2-aminoethyl ether)tetra-acetic acid, 100 mM NaF) supplemented with a cocktail of protease inhibitors. The protein concentrations in the cell lysates were determined by Bradford protein assay kit (Bio-Rad Laboratories, Hercules, USA) according to the manufacturer’s instructions and then 30 µg samples of proteins were used for the assay. Results were normalized to the cellular protein content.

Row | SMILES | IC50 [1] [µM] | IC50 for PNT1 higher than for A2780 (fold) [1] | ROS increase vs control cells [2] | increase of annexin V fluorescence intensity vs untreated control cells [3] [fold] | reduction of phospho-AKT levels (phosphorylated-AKT/total AKT ratio) [4] | caspase-3 activation (fluorescence intensity) [5] | cells showing caspase-8 activation [6] | cells showing caspase-9 activation [7] | effect on TrxR enzyme activity [8] | inhibition of TrxR enzyme activity [8]
1 | CCOC(=O)CN(C)C1=[S+][Au-]([Br])([Br])[S]1 [AuL12, dibromo(ethylsarcosinedithiocarbamate)gold(III), reference compound] | 12.3 ± 0.17 | 3 fold | about 2.8 fold | 5 | ~17% | ~ 40% | ~ 30% | ~ 30% | clear tendency to inhibit the TrxR activity, even if the changes were not statistically significant | about 50%
2 | Cc1cccc2[n+]1[Au-]1([O][Au-]3([O]1)[n+]1c(C)cccc1-c1cccc(C)[n+]13)[n+]1c(C)cccc1-2.F[P-](F)(F)(F)(F)F.F[P-](F)(F)(F)(F)F [Auoxo6, ((6,6′-dimethyl-2,2′-bipyridine)2Au2(µ-O)2)(PF6)2] | 18.4 ± 0.3 | ~16 fold | about 2.8 fold | 10 | ~19% | about 80% | ~70% | 75% | clear tendency to inhibit the TrxR activity, even if the changes were not statistically significant | about 50%
3 | Cc1ccc2ccc3ccc(C)[n+]4c3c2[n+]1[Au-]41[O][Au-]2([O]1)[n+]1c(C)ccc3ccc4ccc(C)[n+]2c4c31.F[P-](F)(F)(F)(F)F.F[P-](F)(F)(F)(F)F [Au2phen, ((2,9-dimethyl-1,10-phenanthroline)2Au2(µ-O)2)(PF6)2] | 11.8 ± 0.25 | about 14 fold | about 3.7 fold | 6 | about 12% | ~ 40% | around 50% | 60% | clear tendency to inhibit the TrxR activity, even if the changes were not statistically significant | ~ 26%
